According to PMC11876601 (Molecular Systems Biology, 2025):
Like-named read-outs stand apart in the source and are kept apart here.

Columns and labels:
Assay in all cases: cells
BxPC-3 [1] = system: BxPC-3; parameters: ATPlite luminescence viability of PDAC cell lines, 11-dose single-agent curves, 4-parameter fit; settings: Homo sapiens, BXPC-3, 72 h, read-out: EC50 [nM]
Procedure, shortened: (§1)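 Drug-combination screening used cells plated at 1000 to 5000 per well one day before treatment. Final DMSO was 0.2%. Each plate held untreated negative-control wells and 5 µM staurosporine positive-control wells.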

Suit2-07 [2] = system: Suit2-07; parameters: ATPlite luminescence viability of PDAC cell lines, 11-dose single-agent curves, 4-parameter fit; settings: 72 h, read-out: EC50 [nM]
Procedure, shortened: as §1

AsPC-1 [3] = system: AsPC-1; parameters: ATPlite luminescence viability of PDAC cell lines, 11-dose single-agent curves, 4-parameter fit; settings: Homo sapiens, ASPC1, 72 h, read-out: EC50 [nM]
Procedure, shortened: as §1

MiaPaCa-2 [4] = system: MiaPaCa-2; parameters: ATPlite luminescence viability of PDAC cell lines, 11-dose single-agent curves, 4-parameter fit; settings: Homo sapiens, MIA PaCa-2, 72 h, read-out: EC50 [nM]
Procedure, shortened: as §1

Capan-1 = system: Capan-1; parameters: Viability of PDAC cell lines, ATPlite luminescence, 11-dose single-agent curve fit; settings: Homo sapiens, CAPAN-1, 72 h, read-out: EC50 [nM]
Procedure, shortened: (§2)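 screening used cells plated at 1000 to 5000 per well one day before treatment. Final DMSO was 0.2%. Each plate held untreated negative-control wells and 5 µM staurosporine positive-control wells.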

HuP-T4 = system: HuP-T4; parameters: Viability of PDAC cell lines, ATPlite luminescence, 11-dose single-agent curve fit; settings: Homo sapiens, HuP-T4, 72 h, read-out: EC50 [nM]
Procedure, shortened: as §2

Colo-357 [5] = system: Colo-357; parameters: Viability of PDAC cell lines, ATPlite luminescence, 11-dose single-agent curve fit; settings: Homo sapiens, COLO357, 72 h, read-out: EC50 [nM]
Procedure, shortened: as §2

PANC-1 = system: PANC-1; parameters: Viability of PDAC cell lines, ATPlite luminescence, 11-dose single-agent curve fit; settings: Homo sapiens, PANC-1, 72 h, read-out: EC50 [nM]
Procedure, shortened: as §2

PSN-1 [6] = system: PSN-1; parameters: Viability of PDAC cell lines, ATPlite luminescence, 11-dose single-agent curve fit; settings: Homo sapiens, PSN1, 72 h, read-out: EC50 [nM]
Procedure, shortened: as §2

FAMPAC [7] = system: FAMPAC; parameters: Viability of PDAC cell lines, ATPlite luminescence, 11-dose single-agent curve fit; settings: 72 h, read-out: EC50 [nM]
Procedure, shortened: as §2

Dan-G [8] = system: Dan-G; parameters: Viability of PDAC cell lines, ATPlite luminescence, 11-dose single-agent curve fit; settings: 72 h, read-out: EC50 [nM]
Procedure, shortened: as §2

PaTu-8988-T [9] = system: PaTu-8988-T; parameters: Viability of PDAC cell lines, ATPlite luminescence, 11-dose single-agent curve fit; settings: Homo sapiens, PaTu 8988t, 72 h, read-out: EC50 [nM]
Procedure, shortened: as §2

HPDE = system: HPDE; parameters: Viability of PDAC cell lines, ATPlite luminescence, 11-dose single-agent curve fit; settings: HPDE, 72 h, read-out: EC50 [nM]
Procedure, shortened: as §2

PSN-1 [10] = system: PSN-1; parameters: ATPlite luminescence viability of PDAC cell lines, 11-dose single-agent curves, 4-parameter fit; settings: Homo sapiens, PSN1, 72 h, read-out: EC50 [nM]
Procedure, shortened: as §1

FAMPAC [11] = system: FAMPAC; parameters: ATPlite luminescence viability of PDAC cell lines, 11-dose single-agent curves, 4-parameter fit; settings: 72 h, read-out: EC50 [nM]
Procedure, shortened: as §1

Suit2-07 [12] = system: Suit2-07; parameters: Viability of PDAC cell lines, ATPlite luminescence, 11-dose single-agent curve fit; settings: 72 h, read-out: EC50 [nM]
Procedure, shortened: as §2

Colo-357 [13] = system: Colo-357; parameters: ATPlite luminescence viability of PDAC cell lines, 11-dose single-agent curves, 4-parameter fit; settings: Homo sapiens, COLO357, 72 h, read-out: EC50 [nM]
Procedure, shortened: as §1

BxPC-3 [14] = system: BxPC-3; parameters: Viability of PDAC cell lines, ATPlite luminescence, 11-dose single-agent curve fit; settings: Homo sapiens, BXPC-3, 72 h, read-out: EC50 [nM]
Procedure, shortened: as §2

AsPC-1 [15] = system: AsPC-1; parameters: Viability of PDAC cell lines, ATPlite luminescence, 11-dose single-agent curve fit; settings: Homo sapiens, ASPC1, 72 h, read-out: EC50 [nM]
Procedure, shortened: as §2

MiaPaCa-2 [16] = system: MiaPaCa-2; parameters: Viability of PDAC cell lines, ATPlite luminescence, 11-dose single-agent curve fit; settings: Homo sapiens, MIA PaCa-2, 72 h, read-out: EC50 [nM]
Procedure, shortened: as §2

Dan-G [17] = system: Dan-G; parameters: ATPlite luminescence viability of PDAC cell lines, 11-dose single-agent curves, 4-parameter fit; settings: 72 h, read-out: EC50 [nM]
Procedure, shortened: as §1

PaTu-8988-T [18] = system: PaTu-8988-T; parameters: ATPlite luminescence viability of PDAC cell lines, 11-dose single-agent curves, 4-parameter fit; settings: Homo sapiens, PaTu 8988t, 72 h, read-out: EC50 [nM]
Procedure, shortened: as §1

Row | EC50 (BxPC-3 [1]) | EC50 (MiaPaCa-2 [4]) | EC50 (Colo-357 [5]) | EC50 (PANC-1) | EC50 (Colo-357 [13]) | EC50 (BxPC-3 [14]) | EC50 (AsPC-1 [15]) | EC50 (MiaPaCa-2 [16]) | SMILES | EC50 (Suit2-07 [2]) | EC50 (Capan-1) | EC50 (HuP-T4) | EC50 (PSN-1 [6]) | EC50 (FAMPAC [7]) | EC50 (Dan-G [8]) | EC50 (PaTu-8988-T [9]) | EC50 (HPDE) | EC50 (PSN-1 [10]) | EC50 (FAMPAC [11]) | EC50 (Suit2-07 [12]) | EC50 (Dan-G [17]) | other results
1 | 4420 nM | > 10000 nM | 3010 nM | > 10000 nM |  |  |  |  | CC(C)N1CCN(Cc2cnc(-c3cc(-c4cccc5[nH]ccc45)cc4[nH]ncc34)o2)CC1 [Nemiralisib] | > 10000 nM | 10.5 nM | 3260 nM | 5830 nM | > 10000 nM | 5040 nM | 811 nM | 7360 nM |  |  |  |  | EC50 (AsPC-1 [3]): > 10000 nM
2 | 381 nM | 10.7 nM | 58.4 nM | 350 nM |  |  |  |  | Cn1cnc2c(F)c(Nc3ccc(Br)cc3F)c(C(=O)NOCCO)cc21 [Binimetinib] |  | 401 nM | 176 nM |  |  | 504 nM | 155 nM | 222 nM | 71.8 nM | 2430 nM | 112 nM |  | EC50 (AsPC-1 [3]): 83.9 nM
3 |  |  |  | 3760 nM | 3560 nM | > 10000 nM | 3000 nM | 3140 nM | Cc1cc2c(F)c(Oc3ncnn4cc(OC[C@@H](C)OC(=O)[C@H](C)N)c(C)c34)ccc2[nH]1 [Brivanib alaninate] |  | > 10000 nM | 2460 nM | 3990 nM | > 10000 nM | 3820 nM | > 10000 nM | 3160 nM |  |  | > 10000 nM |  | 
4 |  |  |  | 3010 nM | 3360 nM | 3910 nM | 2530 nM | 8760 nM | CC[C@H](Nc1ncnc2[nH]cnc12)c1nc2cccc(F)c2c(=O)n1-c1ccccc1 [Idelalisib] |  | 9330 nM | 754 nM | 545 nM | > 10000 nM |  | 10000 nM | 9240 nM |  |  | 5950 nM | 2130 nM | 
5 |  |  |  | > 10000 nM | 151 nM | 246 nM | 154 nM | 3940 nM | CC(C)NC[C@@H](C(=O)N1CCN(c2ncnc3c2[C@H](C)C[C@H]3O)CC1)c1ccc(Cl)cc1 [Ipatasertib] | 3240 nM | 4690 nM | 310 nM | 7080 nM | 642 nM |  | 543 nM | 5290 nM |  |  |  | 1150 nM | 
6 |  | > 10000 nM | 4380 nM | 3550 nM |  | > 10000 nM | > 10000 nM |  | COc1cc2nccc(Oc3ccc(NC(=O)C4(C(=O)Nc5ccc(F)cc5)CC4)cc3)c2cc1OC [Cabozantinib] |  | 6600 nM | 3810 nM | > 10000 nM | > 10000 nM |  |  | > 10000 nM |  |  | > 10000 nM | > 10000 nM | EC50 (PaTu-8988-T [18]): 4020 nM
7 | 6320 nM | > 10000 nM | 1080 nM | 5350 nM |  |  |  |  | COc1cc(CCc2cc(NC(=O)c3ccc(N4C[C@@H](C)N[C@@H](C)C4)cc3)n[nH]2)cc(OC)c1 [AZD4547] | 9040 nM | 0.79 nM | 9460 nM |  | > 10000 nM | 0.1 nM | 7380 nM | 5300 nM | 8650 nM |  |  |  | EC50 (AsPC-1 [3]): > 10000 nM
8 |  |  |  | 5670 nM | 240 nM | 1010 nM | > 10000 nM | 7710 nM | Cc1cc(Nc2ncnc3ccc(NC4=NC(C)(C)CO4)cc23)ccc1Oc1ccn2ncnc2c1 [Tucatinib] |  | 121 nM | 292 nM | 24.4 nM | 7060 nM |  | > 10000 nM | 3660 nM |  |  | > 10000 nM | 222 nM | 
9 | 348 nM |  | 9480 nM | 5600 nM |  |  | 975 nM | 971 nM | CC(C)(C)c1nc(-c2cccc(NS(=O)(=O)c3c(F)cccc3F)c2F)c(-c2ccnc(N)n2)s1 [Dabrafenib] | 883 nM | 50.5 nM | 1830 nM |  |  | 274 nM | 749 nM | 197 nM | 341 nM | 428 nM |  |  | 
10 |  | > 10000 nM |  | > 10000 nM | 5610 nM | 2930 nM | 4830 nM |  | CC(=O)c1c(C)c2cnc(Nc3ccc(N4CCNCC4)cn3)nc2n(C2CCCC2)c1=O [Palbociclib] | > 10000 nM | 5070 nM | 0.1 nM |  | 1390 nM |  |  | > 10000 nM | > 10000 nM |  |  | 8540 nM | EC50 (PaTu-8988-T [18]): > 10000 nM
11 | 1360 nM | 24.1 nM | 22.3 nM | 87.4 nM |  |  |  |  | Cn1cnc2c(F)c(Nc3ccc(Br)cc3Cl)c(C(=O)NOCCO)cc21 [Selumetinib] |  | 4670 nM | 276 nM |  |  | 1490 nM | 94.7 nM | 268 nM | 229 nM | 8370 nM | 451 nM |  | EC50 (AsPC-1 [3]): 59.5 nM
12 | 2910 nM | 773 nM |  | 1860 nM | 6960 nM |  | 1820 nM |  | CO[C@]1(C(=O)N[C@@H](C)c2ccc(-n3cc(F)cn3)nc2)CC[C@H](c2nc(C)cc(Nc3cc(C)[nH]n3)n2)CC1 [Pralsetinib] | > 10000 nM | > 10000 nM | 4550 nM |  |  |  |  | 4600 nM | 5870 nM | 5210 nM |  | 6680 nM | EC50 (PaTu-8988-T [18]): 6490 nM
13 |  | > 10000 nM | 953 nM | 8650 nM |  |  | 4110 nM |  | N#CCNC(=O)c1ccc(-c2ccnc(Nc3ccc(N4CCOCC4)cc3)n2)cc1 [Momelotinib] | 5780 nM | 9140 nM | 2670 nM |  |  | 6780 nM |  | 8470 nM | > 10000 nM | > 10000 nM |  |  | EC50 (PaTu-8988-T [18]): > 10000 nM
14 |  |  | 109 nM | 4980 nM |  | > 10000 nM | 7970 nM | > 10000 nM | Cn1cc(C2=C(c3cn(C4CCN(Cc5ccccn5)CC4)c4ccccc34)C(=O)NC2=O)c2ccccc21 [Enzastaurin] |  | 401 nM | 2270 nM |  | > 10000 nM | 873 nM | 5780 nM | 9200 nM | > 10000 nM |  | > 10000 nM |  | 
15 |  | 3080 nM | 6810 nM | 7980 nM |  | 4560 nM | > 10000 nM |  | Cc1cc2cc(Oc3ccnc(Nc4cccc(CS(=O)(=O)NCCN(C)C)c4)n3)ccc2[nH]1 [Sulfatinib] |  | 3530 nM | 1900 nM | 5780 nM | > 10000 nM | > 10000 nM |  | 5550 nM |  |  | > 10000 nM |  | EC50 (PaTu-8988-T [18]): > 10000 nM
